Assay results from patent US11332485B2, “Penicillin-binding protein inhibitors” (priority 2017, dated 2022).
pEC50: −log10 of the molar value.

How the values were obtained:
[1] = target: T1, PBP1b from Escherichia coli (Escherichia coli, UniProt P02919); experiment: Radioligand competition binding assay with 14C-labeled boronic acid probe (Example 96); settings: 14C-labeled probe 96 at 20 μM, PBP 0.1 μM; read-out: E. coli K12 PBP1b EC50
T1 construct: made in house
Summary of the method: (§1)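 Purified PBP (0.1 μM) in 20 mM Tris pH 7.5, 500 mM NaCl, 0.1% Triton X-100 preincubated 60 min with inhibitor, then 60 min with 20 μM 14C-boronic acid probe. Bound probe recovered by spin desalting and counted by scintillation; EC50 is the concentration halving probe binding.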

[2] = target: T2, PBP1a from Escherichia coli (Escherichia coli, UniProt P02918); experiment: as above; settings: 14C-labeled probe 96 at 20 μM, PBP 0.1 μM; read-out: E. coli K12 PBP1a EC50
T2 construct: made in house
T2 sequence (P02918 whole entry): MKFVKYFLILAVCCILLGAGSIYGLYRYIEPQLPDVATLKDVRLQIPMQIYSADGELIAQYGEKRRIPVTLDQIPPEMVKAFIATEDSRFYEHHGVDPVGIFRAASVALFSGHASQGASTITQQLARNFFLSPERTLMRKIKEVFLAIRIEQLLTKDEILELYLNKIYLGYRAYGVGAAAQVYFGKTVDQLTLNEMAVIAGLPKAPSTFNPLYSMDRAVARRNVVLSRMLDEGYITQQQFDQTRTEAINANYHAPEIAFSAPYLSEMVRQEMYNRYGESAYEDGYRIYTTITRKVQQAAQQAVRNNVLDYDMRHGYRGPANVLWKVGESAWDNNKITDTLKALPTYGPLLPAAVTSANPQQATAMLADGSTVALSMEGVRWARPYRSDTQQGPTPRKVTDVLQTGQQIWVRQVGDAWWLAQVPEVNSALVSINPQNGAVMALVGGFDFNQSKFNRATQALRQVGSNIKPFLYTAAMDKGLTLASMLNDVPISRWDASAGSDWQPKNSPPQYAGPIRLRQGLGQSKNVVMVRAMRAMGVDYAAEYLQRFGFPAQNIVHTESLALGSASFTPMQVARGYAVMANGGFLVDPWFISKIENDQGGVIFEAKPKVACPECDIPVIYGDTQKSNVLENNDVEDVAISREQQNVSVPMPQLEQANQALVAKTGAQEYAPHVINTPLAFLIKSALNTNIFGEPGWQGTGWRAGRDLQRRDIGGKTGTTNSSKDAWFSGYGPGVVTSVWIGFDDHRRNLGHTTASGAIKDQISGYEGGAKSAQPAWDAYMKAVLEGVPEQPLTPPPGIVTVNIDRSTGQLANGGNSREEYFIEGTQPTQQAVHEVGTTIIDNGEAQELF
Summary of the method: as §1

T1 sequence (P02919 whole entry): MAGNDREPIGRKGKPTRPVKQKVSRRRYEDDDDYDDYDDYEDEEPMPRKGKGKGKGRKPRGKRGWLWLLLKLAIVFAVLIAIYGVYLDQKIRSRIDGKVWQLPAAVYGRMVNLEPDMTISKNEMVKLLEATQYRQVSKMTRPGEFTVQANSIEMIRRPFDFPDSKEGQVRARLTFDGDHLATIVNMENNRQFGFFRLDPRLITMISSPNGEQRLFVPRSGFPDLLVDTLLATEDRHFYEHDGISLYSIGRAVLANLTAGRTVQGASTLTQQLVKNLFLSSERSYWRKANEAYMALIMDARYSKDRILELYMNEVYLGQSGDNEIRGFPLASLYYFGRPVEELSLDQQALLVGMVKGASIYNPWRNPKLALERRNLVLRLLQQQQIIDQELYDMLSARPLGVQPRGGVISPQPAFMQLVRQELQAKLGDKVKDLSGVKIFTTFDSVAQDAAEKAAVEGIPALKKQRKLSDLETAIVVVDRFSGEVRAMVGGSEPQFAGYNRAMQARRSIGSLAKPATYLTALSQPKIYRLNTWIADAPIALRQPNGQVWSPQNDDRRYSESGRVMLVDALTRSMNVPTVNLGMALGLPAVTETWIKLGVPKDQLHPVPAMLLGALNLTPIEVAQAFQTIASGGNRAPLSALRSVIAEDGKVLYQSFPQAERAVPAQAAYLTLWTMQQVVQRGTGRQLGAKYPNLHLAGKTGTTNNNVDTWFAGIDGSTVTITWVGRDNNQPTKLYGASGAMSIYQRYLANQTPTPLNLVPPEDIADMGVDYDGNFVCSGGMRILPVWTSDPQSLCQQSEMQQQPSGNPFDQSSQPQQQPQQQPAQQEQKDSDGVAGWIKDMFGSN

`CCN1CCN(C(=O)NC(C(=O)N[C@H]2Cc3cccc(C(=O)O)c3OB2O)c2csc(N)n2)C(=O)C1=O` (stereo partly drawn) [Example 12, (3R)-3-(2-(2-aminothiazol-4-yl)-2-(4-ethyl-2,3-dioxopiperazine-1-carboxamido)acetamido)-2-hydroxy-3,4-dihydro-2H-benzo[e][1,2]oxaborinine-8-carboxylic acid] was tested, and the pEC50 [1] was over 5.00 and the pEC50 [2] was over 5.00.
